The source of these data is ChEMBL document CHEMBL1158720, “Ambigol C and 2,4-dichlorobenzoic acid, natural products produced by the terrestrial cyanobacterium Fischerella ambigua” (J Nat Prod, 2005).

Values after ≈ are worked out from the molar mass of the structure shown. Active and inactive are the calls of the source. No cut-off for these calls is given here. Bounds are passed on as bounds.

Experiment [1] relates to Mycobacterium tuberculosis. In words: Antimicrobial activity against Mycobacterium tuberculosis. Type of experiment: functional.
For experiment [2], the system named is Plasmodium falciparum. In words: Antiplasmodial activity against chloroquine-resistant Plasmodium falciparum K1. Type of experiment: functional, organism-based.
In experiment [3] the test system is Plasmodium falciparum. In words: Antiplasmodial activity against chloroquine-sensitive Plasmodium falciparum NF54. Type of experiment: functional, organism-based.
Another experiment concerns Escherichia coli. In words: Antimicrobial activity against Escherichia coli at 50 ug/filter disk. Type of experiment: functional.
Another experiment deals with Priestia megaterium. In words: Antimicrobial activity against Bacillus megaterium at 50 ug/filter disk. It counts as functional.
A further experiment deals with Microbotryum violaceum. In words: Antimicrobial activity against […] at 50 ug/filter disk. Type of experiment: functional.
Experiment [4] deals with Aspergillus pseudoglaucus. In words: Antimicrobial activity against Eurotium repens at 50 ug/filter disk. It counts as functional.
For the next experiment, the system named is Fusarium oxysporum. In words: Antimicrobial activity against Fusarium oxysporum at 50 ug/filter disk. Type of experiment: functional.
In the next experiment the test system is Mycotypha microspora. In words: Antimicrobial activity against Mycotypha microspora at 50 ug/filter disk. Type of experiment: functional.
The subject of a further experiment is [Chlorella] fusca. In words: Antimicrobial activity against Chlorella fusca at 50 ug/filter disk. Type of experiment: functional, Scenedesmus fuscus.
Another experiment concerns Trypanosoma cruzi. In words: Antitrypanosomal activity against Trypanosoma cruzi trypomastigotes. It counts as functional.
The subject of experiment [5] is Trypanosoma brucei rhodesiense. In words: Antitrypanosomal activity against Trypanosoma brucei rhodesiense trypomastigotes. Type of experiment: functional.
Another experiment relates to Biomphalaria glabrata. In words: Molluscicidal activity against Biomphalaria glabrata at 100 ug/ml. Type of experiment: functional, organism-based.
For the next experiment, the system named is L6. In words: Cytotoxicity against rat L6 cells. It counts as functional.

Turning to `CO[C@H]1/C=C/O[C@@]2(C)Oc3c(C)c(O)c4c(O)c(c(/C=N/N5CCN(C)CC5)c(O)c4c3C2=O)NC(=O)/C(C)=C\C=C\[C@H](C)[C@H](O)[C@@H](C)[C@@H](O)[C@@H](C)[C@H](OC(C)=O)[C@@H]1C` [RIFAMPIN], in [1], the MIC stood at 0.125 µg/mL (≈ 0.152 µM).
Regarding `C[C@@H]1CC[C@H]2[C@@H](C)C(=O)O[C@@H]3O[C@@]4(C)CC[C@@H]1[C@]32OO4` [ARTEMISININ], the results for the concentration for half-maximal inhibition (IC50) with Plasmodium falciparum [2] and in the experiment with Plasmodium falciparum [3] were 0.001 µg/mL (≈ 0.00354 µM) and 0.003 µg/mL (≈ 0.0106 µM), respectively.
Regarding `Clc1ccc(COC(Cn2ccnc2)c2ccc(Cl)cc2Cl)c(Cl)c1` (configuration not stated) [MICONAZOLE], the “inhibition zone (IZ)” value (in the experiment on Escherichia coli; in the experiment with Priestia megaterium; with Microbotryum violaceum; in experiment [4]; in the experiment with Fusarium oxysporum; in the experiment on Mycotypha microspora) was 20 mm throughout. In addition, in experiment [Chlorella] fusca, the “inhibition zone (IZ)” value came to 20 mm.
As for `Oc1c(Cl)cc(Cl)cc1-c1c(Cl)cc(Cl)c(Oc2ccc(Cl)cc2Cl)c1O` [AMBIGOL A], in the experiment with Escherichia coli, the result was inactive. Besides, the “inhibition zone (IZ)” value was 8 mm with Priestia megaterium; 7 mm with Microbotryum violaceum; 7 mm in experiment [4]; 8 mm with Fusarium oxysporum; 4 mm in the experiment on Mycotypha microspora; 3 mm in experiment [Chlorella] fusca. Besides, the MIC was determined as 33 µg/mL (≈ 68 µM) with Trypanosoma cruzi, 33 µg/mL (≈ 68 µM) in [5], 64 µg/mL (≈ 132 µM) in experiment [1] and 33 µg/mL (≈ 68 µM) with L6. The 50% inhibitory concentration (IC50) (usually the concentration that gives 50% inhibition) is 0.846 µg/mL (≈ 1.74 µM) in the experiment on Plasmodium falciparum [2] and 1.62 µg/mL (≈ 3.35 µM) in the experiment on Plasmodium falciparum [3]. In addition, the outcome in the experiment with Biomphalaria glabrata was Active.
`Oc1c(Cl)c(Oc2ccc(Cl)cc2Cl)cc(Oc2ccc(Cl)cc2Cl)c1Cl` [AMBIGOL C]: the result (with Escherichia coli; in [4]; with Fusarium oxysporum; in the experiment on Mycotypha microspora; in [Chlorella] fusca (Scenedesmus fuscus); in the experiment with Biomphalaria glabrata) was inactive. The “inhibition zone (IZ)” value with Priestia megaterium came to 7 mm; in the experiment on Microbotryum violaceum, 5 mm. For the same molecule, the MIC was 100 µg/mL (≈ 206 µM) in the experiment with Trypanosoma cruzi, 11 µg/mL (≈ 22.7 µM) in experiment [5], greater than 128 µg/mL in experiment [1] and 100 µg/mL (≈ 206 µM) in the experiment with L6. The IC50 with Plasmodium falciparum [2] came to 1.54 µg/mL (≈ 3.17 µM); in the experiment with Plasmodium falciparum [3], 2.5 µg/mL (≈ 5.15 µM).
For `Nc1nc(N)nc(Nc2ccc([As]3SCC(CO)S3)cc2)n1` (configuration not stated) [MELARSOPROL], the MIC (in the experiment on Trypanosoma cruzi; in experiment [5]) was 0.011 µg/mL throughout.
Consider `CN[C@@H]1[C@H](O[C@H]2[C@H](O[C@H]3[C@H](O)[C@@H](O)[C@H](N=C(N)N)[C@@H](O)[C@@H]3N=C(N)N)O[C@@H](C)[C@]2(O)C=O)O[C@@H](CO)[C@H](O)[C@H]1O.CN[C@@H]1[C@H](O[C@H]2[C@H](O[C@H]3[C@H](O)[C@@H](O)[C@H](N=C(N)N)[C@@H](O)[C@@H]3N=C(N)N)O[C@@H](C)[C@]2(O)C=O)O[C@@H](CO)[C@H](O)[C@H]1O.O=S(=O)(O)O.O=S(=O)(O)O.O=S(=O)(O)O` [STREPTOMYCIN SULFATE], for which the “inhibition zone (IZ)” value (in the experiment with Escherichia coli; with Priestia megaterium; in the experiment on Microbotryum violaceum; in [4]; with Fusarium oxysporum; with Mycotypha microspora) was 4 mm throughout. Besides, in experiment [Chlorella] fusca, the “inhibition zone (IZ)” value is 4 mm.
